Values of other authors as cited in patent publication US6964946B1, “Oral pharmaceutical compositions containing taxanes and methods of treatment employing the same” (Baker Norton Pharmaceuticals, Inc., priority 1995, dated 2005).
“Also recorded” adds a separate entry of the source.

How the values were obtained:
[1] = tested on: tubulin
[2] = tested on: protein isoprenylation

## CC(=O)O[C@H]1C(=O)[C@@]2(C)[C@H]([C@H](OC(=O)c3ccccc3)[C@]3(O)C[C@H](OC(=O)[C@H](O)[C@@H](NC(=O)c4ccccc4)c4ccccc4)C(C)=C1C3(C)C)[C@]1(OC(C)=O)CO[C@@H]1C[C@@H]2O [Paclitaxel, paclitaxel]
[1]
  level at which inhibition of tubulin disassembly occurs: about 0.1 μM; also recorded: about 85 ng/ml
[2]
  level at which inhibition of protein isoprenylation occurs: about 0.03 μM; also recorded: about 25 ng/ml
